US20040106838A1, “Use of ionic liquids to separate diolefins” (NOVA Chemicals (International) S.A., priority 2002, published 2004)
Where two headings read alike, the source gives them in different places.

How the values were obtained:
[1] = Liquid-liquid extraction of butadiene from mixed C4 by bmim+ BF4− ionic liquid; type: physicochemical; conditions: room temperature
Text: The testing apparatus consists of three sample cylinders (150 cc, 10 cc, and 50 cc) connected by ⅜-inch tubing (in the order listed) with valves allowing for isolation of each cylinder. A gas syringe is used to take C4 samples for GC analysis. Various mixed C4S were used which contained varying quantities of 1,3-butadiene (ranging from 15-85 weight %). The composition range of the non-butadiene fraction of the standards was (in weight %) n-butane 29-33%, 1-butene 20-33%, isobutene 0-36%, trans-2-butene 7-17%, and cis-2-butene 5-17%.
To measure C4 extraction, 40 mL of bmim^+ BF4^− absorbent is loaded into the 150 cc cylinder and the 10 cc and 150 cc cylinders are then evacuated. The 10 cc cylinder is then isolated and charged with mixed C4 liquid. This liquid is then added to the 150 cc cylinder. The 10 cc cylinder is then isolated and a second 10 cc is then added to the and subsequently added to the 150 cc cylinder and the 150 cc cylinder is isolated. The apparatus is then agitated to maximize contact between the C4 and ionic liquid phases within the 150 cc cylinder. Following agitation, the liquid is allowed to sit 12 hours to allow the two liquid phases to separate.
To determine the level and composition of C4 in the ionic liquid, a 10 cc sample of ionic liquid from the 150 cc cylinder is charged into the 10 cc cylinder. The 150 cc cylinder is then isolated and the 10 cc ionic liquid sample is charged to the 50 cc cylinder, which is then isolated. The 50 cc cylinder is then heated and the gas syringe is used to collect C4 gas evolving from the ionic liquid. The collected gas is analyzed by GC.
These pseudo-equilibrium extraction experiments conducted for different butadiene concentrations yielded enhanced concentrations of butadiene in the C4 extracted by the ionic liquid.

[2] = C5 hydrocarbon solubility in bmim+ BF4− ionic liquid
Method: The testing apparatus consisted of a flat-bottomed florence flask with a graduated neck. The flask was charged with 75 mL of bmim^+ BF4^−, the level being recorded. A known quantity of a C5 hydrocarbon was then added to the flask and the flask was sealed. The overall liquid level and the location of the liquid-liquid interfacial meniscus were recorded. The mixture was then agitated to contact the two liquids and the two phases were allowed to separate. The locations of all meniscuses were then recorded. Agitation and phase separation was then repeated until the liquid levels remained unchanged. The volume change of the hydrocarbon phase corresponds to the quantity of hydrocarbon dissolved in the ionic liquid. The testing was conducted at ambient temperature.

[3] = in 1-butyl-3-methylimidazolium tetrafluoroborate (bmim+ BF4−), ambient temperature
[4] = solubility in bmim+ BF4−, ambient temperature

SMILES: C=CC=C [Butadiene, 1,3-butadiene]
- Butadiene Concentration in Extracted C4 (wt %) ([1]; Butadiene Concentration in Feed 15 wt %): 37.6 wt %
- Butadiene Concentration in Extracted C4 (wt %) ([1]; Butadiene Concentration in Feed 30 wt %): 43.3 wt %
- Butadiene Concentration in Extracted C4 (wt %) ([1]; Butadiene Concentration in Feed 50 wt %): 74.1 wt %
- Butadiene Concentration in Extracted C4 (wt %) ([1]; Butadiene Concentration in Feed 70 wt %): 82.0 wt %
- Butadiene Concentration in Extracted C4 (wt %) ([1]; Butadiene Concentration in Feed 85 wt %): 91.8 wt %

SMILES: C=CC(=C)C [Isoprene, isoprene]
- Solubility (mol C5/L Ionic Liquid) [2, 3]: 0.611 mol C5/L Ionic Liquid
- Selectivity Over 2-Methyl-2-Butene [2, 4]: 1.7
- Selectivity Over Isopentane [2, 4]: 18.0

SMILES: CC=C(C)C [2-Methyl-2-Butene, 2-methyl-2-butene]
- Solubility (mol C5/L Ionic Liquid) [2, 3]: 0.360 mol C5/L Ionic Liquid
- Selectivity Over Isopentane [2, 4]: 10.6

SMILES: CCC(C)C [Isopentane, isopentane]
- Solubility (mol C5/L Ionic Liquid) [2]: 0.034 mol C5/L Ionic Liquid
